Measured values reported in ChEMBL document CHEMBL1201862, “PubChem BioAssay data set” (2004).
The source made the active and inactive calls.

Tests used:
[1] = target: T1, Replicative DNA helicase DnaB (Mycobacterium tuberculosis, UniProt P9WMR3); assay: DnaB intein splicing inhibitors, dose response, biochemical, cell-free fluorescence (AID 449749); type: functional
T1 sequence (P9WMR3 whole entry): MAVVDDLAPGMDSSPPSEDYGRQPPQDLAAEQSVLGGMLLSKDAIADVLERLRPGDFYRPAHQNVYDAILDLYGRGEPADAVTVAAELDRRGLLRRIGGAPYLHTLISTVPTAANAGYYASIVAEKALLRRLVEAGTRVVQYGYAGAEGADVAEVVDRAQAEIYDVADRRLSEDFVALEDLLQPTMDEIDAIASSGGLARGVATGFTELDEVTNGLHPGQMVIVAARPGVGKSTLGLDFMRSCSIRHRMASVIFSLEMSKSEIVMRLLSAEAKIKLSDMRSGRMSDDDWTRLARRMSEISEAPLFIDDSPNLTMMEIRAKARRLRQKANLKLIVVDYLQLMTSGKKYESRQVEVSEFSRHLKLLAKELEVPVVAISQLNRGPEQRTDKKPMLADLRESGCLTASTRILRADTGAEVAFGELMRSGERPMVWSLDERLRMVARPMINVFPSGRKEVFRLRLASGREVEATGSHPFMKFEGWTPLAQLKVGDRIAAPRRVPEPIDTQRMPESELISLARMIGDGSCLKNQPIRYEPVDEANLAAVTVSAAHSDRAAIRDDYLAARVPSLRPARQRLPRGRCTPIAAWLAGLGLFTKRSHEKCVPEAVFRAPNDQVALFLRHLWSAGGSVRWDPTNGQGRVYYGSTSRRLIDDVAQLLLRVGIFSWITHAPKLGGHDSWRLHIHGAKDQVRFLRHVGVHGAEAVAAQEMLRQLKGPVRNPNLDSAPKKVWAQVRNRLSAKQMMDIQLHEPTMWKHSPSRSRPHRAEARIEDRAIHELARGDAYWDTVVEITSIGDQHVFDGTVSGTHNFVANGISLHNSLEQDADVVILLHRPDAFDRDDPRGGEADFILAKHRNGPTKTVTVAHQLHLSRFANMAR

Caspase-3 = target: T2, Caspase-3 (Homo sapiens, UniProt P42574); type: functional;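 also: Dose-response selectivity test against caspase-3 for candidate inhibitors of sentrin-specific proteases (SENPs)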
T2 sequence (P42574 whole entry): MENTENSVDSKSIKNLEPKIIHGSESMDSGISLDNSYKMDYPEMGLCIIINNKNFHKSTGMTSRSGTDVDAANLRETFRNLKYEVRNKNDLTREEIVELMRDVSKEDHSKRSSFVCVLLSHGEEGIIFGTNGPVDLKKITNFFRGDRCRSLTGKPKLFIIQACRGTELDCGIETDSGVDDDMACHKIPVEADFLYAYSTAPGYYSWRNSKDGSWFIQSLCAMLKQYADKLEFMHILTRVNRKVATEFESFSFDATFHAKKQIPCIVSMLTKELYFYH

[2] = target: T3, Sentrin-specific protease 8 (Homo sapiens, UniProt Q96LD8); type: functional;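 also: luminescence read-out of SENP8 inhibition, dose-response confirmation following an ultra-high-throughput screen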
T3 sequence (Q96LD8 whole entry): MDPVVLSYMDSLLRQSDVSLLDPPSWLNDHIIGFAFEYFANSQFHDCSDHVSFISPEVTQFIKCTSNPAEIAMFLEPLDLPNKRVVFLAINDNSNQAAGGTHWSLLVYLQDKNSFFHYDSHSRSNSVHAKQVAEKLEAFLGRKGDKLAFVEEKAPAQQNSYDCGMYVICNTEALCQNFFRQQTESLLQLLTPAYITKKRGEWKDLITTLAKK

[3] = target: T4, Sentrin-specific protease 6 (Homo sapiens, UniProt Q9GZR1); type: functional;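 also: Luminescence-based dose-response confirmatory assay of SENP6 inhibition, following up an ultra-high-throughput screen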
T4 sequence (Q9GZR1 whole entry): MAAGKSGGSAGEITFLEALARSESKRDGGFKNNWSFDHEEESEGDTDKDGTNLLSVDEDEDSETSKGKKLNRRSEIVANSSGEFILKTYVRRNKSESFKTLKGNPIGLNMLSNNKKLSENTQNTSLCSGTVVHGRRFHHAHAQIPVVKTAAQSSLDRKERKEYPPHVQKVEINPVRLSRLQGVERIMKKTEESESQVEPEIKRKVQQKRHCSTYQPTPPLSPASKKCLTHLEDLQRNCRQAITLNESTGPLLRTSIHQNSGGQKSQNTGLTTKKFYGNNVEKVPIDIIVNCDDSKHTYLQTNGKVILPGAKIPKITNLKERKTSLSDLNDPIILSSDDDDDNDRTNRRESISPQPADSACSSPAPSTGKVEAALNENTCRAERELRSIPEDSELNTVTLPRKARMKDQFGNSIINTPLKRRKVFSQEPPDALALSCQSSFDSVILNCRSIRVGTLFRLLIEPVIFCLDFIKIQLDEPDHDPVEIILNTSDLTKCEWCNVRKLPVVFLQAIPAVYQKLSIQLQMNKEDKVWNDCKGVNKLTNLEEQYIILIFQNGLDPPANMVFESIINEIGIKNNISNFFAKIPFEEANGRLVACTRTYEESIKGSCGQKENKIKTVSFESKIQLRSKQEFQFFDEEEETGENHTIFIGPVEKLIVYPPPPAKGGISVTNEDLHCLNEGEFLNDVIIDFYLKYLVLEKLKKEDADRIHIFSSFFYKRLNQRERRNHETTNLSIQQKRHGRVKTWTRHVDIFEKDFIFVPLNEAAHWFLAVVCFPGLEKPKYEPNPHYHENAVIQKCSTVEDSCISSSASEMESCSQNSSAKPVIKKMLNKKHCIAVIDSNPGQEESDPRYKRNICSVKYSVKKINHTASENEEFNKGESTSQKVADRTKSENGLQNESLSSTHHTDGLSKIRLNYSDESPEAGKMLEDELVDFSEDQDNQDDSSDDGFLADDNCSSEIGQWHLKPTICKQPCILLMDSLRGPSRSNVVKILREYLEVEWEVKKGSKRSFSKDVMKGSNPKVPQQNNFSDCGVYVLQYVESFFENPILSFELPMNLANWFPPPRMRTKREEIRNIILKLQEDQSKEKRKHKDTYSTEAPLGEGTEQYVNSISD

Streptokinase A = target: T5, Streptokinase A (Streptococcus pyogenes serotype M1, UniProt P10520); assay: viability-normalized secreted streptokinase activity reduction – plasminogen activation absorbance, OD405, dose response (AID 1914); type: functional, Streptococcus pyogenes M1 GAS;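 also: secreted streptokinase activity via plasminogen activation per viability signal from cell pellet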
T5 sequence (P10520 whole entry): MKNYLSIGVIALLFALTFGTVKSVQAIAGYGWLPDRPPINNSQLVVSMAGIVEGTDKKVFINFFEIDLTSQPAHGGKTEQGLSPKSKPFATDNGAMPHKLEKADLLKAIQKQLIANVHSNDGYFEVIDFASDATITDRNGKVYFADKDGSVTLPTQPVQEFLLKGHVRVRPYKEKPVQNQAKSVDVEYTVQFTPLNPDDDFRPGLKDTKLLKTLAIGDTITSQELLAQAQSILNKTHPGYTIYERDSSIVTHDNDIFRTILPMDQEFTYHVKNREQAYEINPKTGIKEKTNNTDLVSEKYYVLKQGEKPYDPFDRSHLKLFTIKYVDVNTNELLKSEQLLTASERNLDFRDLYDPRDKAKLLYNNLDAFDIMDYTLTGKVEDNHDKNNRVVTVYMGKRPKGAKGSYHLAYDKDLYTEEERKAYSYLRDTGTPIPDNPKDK

BJ = assay: BJ-TERT-LT-ST fibroblast viability loss – cell-based, RAS-independent, luminescence, dose response (AID 1935); type: functional; conditions: Homo sapiens;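 also: BJ fibroblasts immortalized with TERT plus LT and ST oncogenes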

Row | SMILES | AC50 [1] | IC50 (Caspase-3) | IC50 [2] | IC50 [3] | EC50 (Streptokinase A) | other results
1 | Cn1nc(-c2ccc(Cl)cc2)nc2c(=O)n(C)c(=O)nc1-2 | 0.0409 µM (active) |  |  |  |  | 
2 | SC1=Nc2ccccc2C1 | 1.77 µM (active) |  |  |  |  | 
3 | NS(=O)(=O)c1ccc(NC(=O)COC(=O)c2ccc([N+](=O)[O-])s2)cc1 |  | 10.2 µM (active) | 4.33 µM (active) | 4.59 µM (active) |  | 
4 | CCCCNc1cc(NC(C)=O)cc2cc(OC)c(OC)cc12 |  | 20.7 µM (active) | 18.3 µM (active) | 6.78 µM (active) |  | 
5 | COc1ccc(C(NC(=O)C(C)C)c2ccc3cccnc3c2O)cc1 (stereo unspecified) |  |  |  |  | > 150 µM (not active) | 
6 | O=C(Cc1ccc([N+](=O)[O-])cc1)N/N=C/c1ccc([N+](=O)[O-])o1 |  |  |  |  | 37 µM (active) | EC50 (BJ): 18.3 µM (active)
